For assay [1], the target named is T1, N-NLP7(1–581) (GST-N-NLP7-8xHIS) (Arabidopsis thaliana, UniProt Q84TH9).
T1 sequence (Q84TH9 1-581): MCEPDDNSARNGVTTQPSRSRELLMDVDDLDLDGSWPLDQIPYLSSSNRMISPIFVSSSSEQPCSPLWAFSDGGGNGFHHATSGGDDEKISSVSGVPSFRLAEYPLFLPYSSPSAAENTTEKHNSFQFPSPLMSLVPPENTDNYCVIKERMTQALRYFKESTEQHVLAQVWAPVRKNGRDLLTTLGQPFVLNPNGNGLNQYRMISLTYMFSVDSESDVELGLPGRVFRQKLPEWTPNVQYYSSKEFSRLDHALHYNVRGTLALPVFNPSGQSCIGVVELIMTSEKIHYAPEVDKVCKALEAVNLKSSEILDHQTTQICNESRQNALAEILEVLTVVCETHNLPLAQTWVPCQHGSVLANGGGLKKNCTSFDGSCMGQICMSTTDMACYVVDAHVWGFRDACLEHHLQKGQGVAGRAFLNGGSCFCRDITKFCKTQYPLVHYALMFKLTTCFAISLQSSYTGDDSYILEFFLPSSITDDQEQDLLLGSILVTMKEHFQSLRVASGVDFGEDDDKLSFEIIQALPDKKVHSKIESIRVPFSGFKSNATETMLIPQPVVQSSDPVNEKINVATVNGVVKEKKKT
As to the kind of experiment: microscale thermophoresis. It is filed as binding. A general note: In MST a laser heats a spot of the sample, and binding alters the fluorescence response.

In assay [2] the target is T2, NLP7 (GST-NLP7-8xHIS) (Arabidopsis thaliana, UniProt Q84TH9).
T2 sequence (Q84TH9 1-959): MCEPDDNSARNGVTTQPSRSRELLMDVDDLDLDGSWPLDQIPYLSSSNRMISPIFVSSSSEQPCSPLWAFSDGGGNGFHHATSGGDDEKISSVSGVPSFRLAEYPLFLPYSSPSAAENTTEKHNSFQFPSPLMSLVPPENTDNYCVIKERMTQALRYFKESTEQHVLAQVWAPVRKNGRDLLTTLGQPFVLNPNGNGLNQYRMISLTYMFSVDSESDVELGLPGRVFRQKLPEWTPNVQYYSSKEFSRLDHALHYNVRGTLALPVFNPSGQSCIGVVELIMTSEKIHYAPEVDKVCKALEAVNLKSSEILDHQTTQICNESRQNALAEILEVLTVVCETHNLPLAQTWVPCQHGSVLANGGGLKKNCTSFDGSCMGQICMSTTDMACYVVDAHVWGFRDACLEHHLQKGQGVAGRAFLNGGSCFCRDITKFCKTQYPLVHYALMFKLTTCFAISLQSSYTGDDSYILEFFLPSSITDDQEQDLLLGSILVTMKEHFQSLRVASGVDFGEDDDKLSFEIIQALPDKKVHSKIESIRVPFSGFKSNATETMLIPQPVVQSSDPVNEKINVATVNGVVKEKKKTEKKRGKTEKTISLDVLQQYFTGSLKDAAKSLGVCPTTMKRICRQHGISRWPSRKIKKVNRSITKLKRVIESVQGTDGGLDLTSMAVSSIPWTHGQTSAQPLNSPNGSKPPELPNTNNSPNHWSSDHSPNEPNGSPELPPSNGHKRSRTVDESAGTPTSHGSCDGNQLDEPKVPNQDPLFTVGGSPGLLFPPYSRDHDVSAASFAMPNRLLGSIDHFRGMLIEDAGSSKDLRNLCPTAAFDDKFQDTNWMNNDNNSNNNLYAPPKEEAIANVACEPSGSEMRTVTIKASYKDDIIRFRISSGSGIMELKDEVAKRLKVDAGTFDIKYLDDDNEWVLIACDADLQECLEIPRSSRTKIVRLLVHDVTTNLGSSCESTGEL
The assay can be described thus: microscale thermophoresis. It is filed as binding.

As usually defined, the Kd is the concentration at which binding is half-saturated. On to `O=[N+]([O-])O` [nitrate], for which the Kd in assay [1] was 86 ± 38 µM; in assay [2] it was 52 ± 20 µM.

The record behind these values is article PMC9628810 (Science (New York, N.Y.), 2022).
